Legend:
NCI-H226 xenografts = assay: NCI-H226 tumor xenograft efficacy study; format: in vivo; details: day 62, NCI-H226 xenografts in BALB/c nude mice
Protocol: Female BALB/c nude mice (GemPharmatech Co., Ltd) were subcutaneously inoculated with 10×10^6 NCI-H226 tumor cells (ATCC, CRL-5826) in 0.2 mL of PBS mixed with matrigel (1:1) (Corning). Randomization into six groups (n=8 animals per group) was performed when the mean tumor size reached approximately 150 (100-200) mm^3, after which drug treatments were started. Animals were dosed daily orally at the specified concentrations using an oral-gavage needle. The dosing volume was 10 mL/kg per mouse, with a volume adjusted to the mouse body weight. The vehicle control (water containing 0.5% hydroxypropyl methyl cellulose (Sigma-Aldrich, #H3785) and 0.5% Tween 80 (Sigma-Aldrich, #P1754) was administered in the same way. Tumor volumes were measured twice weekly in two dimensions using a caliper, and the volume was expressed in mm^3 using the formula “V=(L×W^2)/2”, where V is the tumor volume, L is the tumor length (the longest tumor dimension) and W is the tumor width (the longest tumor dimension perpendicular to L).
Animal protocols were reviewed and approved by the Institutional Animal Care and Use Committee (IACUC) at CrownBio. During the study, the care and use of animals was conducted in accordance with the regulations of the Association for Assessment and Accreditation of Laboratory Animal Care (AAALAC).

[1] = tested on: TEAD reporter gene activity; assay: TEAD reporter gene assay (MCF7 TEAD reporter cell line); format: cell-based; details: Homo sapiens; TEAD luciferase reporter in MCF7 cells, 24 hours; read-out: IC50 TEAD RGA (converted)
Excerpt: A TEAD reporter cell line was purchased from BPS Bioscience (cat. no. 60618). It contains the firefly luciferase gene under control of TEAD responsive elements stably integrated into the human breast cancer MCF7 cells. In proliferating cells, a basal level of unphosphorylated YAP/TAZ resides in the nucleus and drives the TEAD-dependent expression of the luciferase reporter. The cells were cultivated as recommended by the supplier. Inhibition of TEAD reporter gene activity by experimental compounds was measured using white, clear-bottom, 96 well cell culture plates (Greiner Bio-One, cat. no. 655098). The cells were seeded at a density of 20,000 cells per well in 100 μL growth medium and the plates were incubated overnight at 37° C. with 5% CO2 prior to treatment. Experimental compounds were serially diluted in DMSO to 200× the desired final concentrations. 0.5 μL aliquots of DMSO or the test samples were then mixed into the wells and the cells were further incubated for 24 hours. Luminescence was then measured on a Synergy 4 reader (BioTek) using the ONE-Glo Luciferase Assay System (Promega, cat. no. E6120) according to the manufacturer's instructions. Relative inhibition values were calculated by normalizing the raw data using DMSO-treated cells (0% inhibition) and wells devoid of cells (100% inhibition). IC50 values were calculated by fitting concentration-response data to a sigmoidal 4-parameter logistic model.

[2] = tested on: TEAD-dependent PD marker CTGF; assay: MSTO-211H tumor xenograft pharmacodynamic (PD) study; format: in vivo, mice
Protocol: Female CB. 17 SCID mice (Charles River) were subcutaneously inoculated with 5×10^6 MSTO-211H tumor cells (ATCC, CRL-2081) in 0.1 mL of PBS mixed with matrigel (1:1) (BD Biosciences). Randomization into two groups was performed when the mean tumor size reached approximately 300-400 mm^3, after which drug treatments were started.
Animals were dosed daily orally at the specified concentrations of the compound of Example 2 or the compound of Example 11 using an oral-gavage needle. The dosing volume was 10 mL/kg per mouse, with a volume adjusted to the mouse body weight. The vehicle control (water containing 0.5% hydroxypropyl methyl cellulose (Sigma-Aldrich, #H9262) and 0.5% Tween 80 (Sigma-Aldrich, #P1754)) was administered in the same way.
PD marker analysis was performed on tumors that were collected from animals 3 hours after the last dose was given. […] The tumor protein lysates were prepared and analyzed using standard Western blot procedures. […] For quantitative PCR (qPCR) analyses, RNA was converted into cDNA following manufacturer's instructions (SuperScript™ III First-Strand Synthesis for RT-PCR, Invitrogen, #18080-051). […] The increase in fluorescence was analyzed with the instrument-specific software (Roche, LightCycler® 480 II), and a mean quantity was calculated from duplicate or triplicate PCRs for each sample using the ΔΔCt method.

[3] = biological target: T1, human TEAD2 (amino acids 217-447) (Homo sapiens, UniProt Q15562); assay: Thermal shift assay (TSA); format: binding; details: 3 μM recombinant TEAD2, compound 7 μM, shift vs DMSO control
T1 construct: human TEAD2 (amino acids 217-447); His-tag (N); purchased Proteros biostructures PR-0365; host or cells: E. coli
T1 sequence (Q15562 217-447): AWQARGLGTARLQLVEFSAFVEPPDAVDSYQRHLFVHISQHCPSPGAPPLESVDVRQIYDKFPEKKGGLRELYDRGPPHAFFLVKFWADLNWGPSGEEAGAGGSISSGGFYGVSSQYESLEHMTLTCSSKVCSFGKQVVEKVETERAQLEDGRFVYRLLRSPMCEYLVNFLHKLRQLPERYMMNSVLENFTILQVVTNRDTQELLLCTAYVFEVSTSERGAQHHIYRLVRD
Protocol: The thermal shift assay (TSA) was utilized to characterize target engagement in vitro based on ligand-dependent thermal stabilization of the protein. N-terminally His-tagged human TEAD2 (amino acids 217-447) expressed and purified from E. coli was purchased from Proteros biostructures (cat no. PR-0365). The melting reactions were performed in white, 96 well qPCR plates (Roche Diagnostics, cat. no. 04 729 692 001) in 20 mM HEPES pH 7, 100 mM NaCl in the presence of 4×SYPRO orange (Sigma, cat. no. S5692). Each well contained 3 μM recombinant TEAD2 and either DMSO (control) or experimental compounds at a final concentration of 7 μM. The total volume was 20 μL and the final DMSO concentration was 1%. The plate was sealed and analyzed in a LightCycler 480 II (Roche Diagnostics) by continuously reading the fluorescence using the 465-580 nm filter set while heating from 25° C. to 95° C. using a linear gradient of 1° C./min. Melting temperatures were determined by numerical differentiation using the LightCycler Thermal Shift Analysis software (Roche Diagnostics). The shifts in melting temperature caused by experimental compounds compared to the control are expressed as ΔTm (Table 2).

SMILES | IC50 [1] [nM] | ΔTm at 7 µM [3] [°C] | final ΔT/C (NCI-H226 xenografts; 50 mg/kg po qd) | final ΔT/C (NCI-H226 xenografts; 125 mg/kg po qd) | final ΔT/C (NCI-H226 xenografts; 250 mg/kg po qd) | decrease of CTGF mRNA to (normalized to actin mRNA) ([2]; 250 mg/kg po qd×8, MSTO-211H tumors isolated 3 hours after last dose) [%] | decrease of CTGF mRNA to (normalized to actin mRNA) ([2]; 250 mg/kg po qd×5, MSTO-211H tumors isolated 3 hours after last dose) [%]
COC(C)(C)CCOc1ccnc(Nc2ccc(C(F)(F)F)cc2)c1-c1noc(=O)[nH]1 [Example 66, 3-[4-(3-methoxy-3-methyl-butoxy)-2-[4-(trifluoromethyl)anilino]-3-pyridyl]-4H-1,2,4-oxadiazol-5-one] | 1470 | 0.4 | – | – | – | – | –
O=c1[nH]c(-c2c(OC3CCNCC3)ccnc2Nc2ccc(C(F)(F)F)cc2)no1 [Example 67, 3-[4-(4-piperidyloxy)-2-[4-(trifluoromethyl)anilino]-3-pyridyl]-4H-1,2,4-oxadiazol-5-one] | 10700 | 7.1 | – | – | – | – | –

More lines, main results first:

IC50 [1] [nM] | ΔTm at 7 µM [3] [°C] | SMILES | final ΔT/C (NCI-H226 xenografts; 50 mg/kg po qd) | final ΔT/C (NCI-H226 xenografts; 125 mg/kg po qd) | final ΔT/C (NCI-H226 xenografts; 250 mg/kg po qd) | decrease of CTGF mRNA to (normalized to actin mRNA) ([2]; 250 mg/kg po qd×8, MSTO-211H tumors isolated 3 hours after last dose) [%] | decrease of CTGF mRNA to (normalized to actin mRNA) ([2]; 250 mg/kg po qd×5, MSTO-211H tumors isolated 3 hours after last dose) [%]
41 | 10.6 | O=c1[nH]c(-c2nccnc2Nc2ccc(C(F)(F)F)cc2)no1 [Example 2, 3-[3-[4-(trifluoromethyl)anilino]pyrazin-2-yl]-4H-1,2,4-oxadiazol-5-one] | 0.27 | 0.13 | 0.017 | 28 | –
39 | 6.7 | COc1ccnc(Nc2ccc(C(F)(F)F)cc2)c1-c1noc(=O)[nH]1 [Example 11, 3-[4-methoxy-2-[4-(trifluoromethyl)anilino]-3-pyridyl]-4H-1,2,4-oxadiazol-5-one] | – | – | – | – | 32
81 | 6 | O=c1[nH]c(-c2c(OCCF)ccnc2Nc2ccc(C(F)(F)F)cc2)no1 [Example 65, 3-[4-(2-fluoroethoxy)-2-[4-(trifluoromethyl)anilino]-3-pyridyl]-4H-1,2,4-oxadiazol-5-one] | – | – | – | – | –
